Measurements reported in ChEMBL document CHEMBL1671771, “Bismuth heterocycles based on a diphenyl sulfone scaffold: synthesis and substituent effect on the antifungal activity against Saccharomyces cerevisiae” (Eur J Med Chem, 2011).

These substances were tested on Saccharomyces cerevisiae (assay: Antifungal activity against Saccharomyces cerevisiae W303-1A at 30 mM after 48 hrs).
Assay type: functional, organism-based

In order of falling inhibition zone (IZ):
1. 10-chlorobenzo[b][1,4]benzothiabismine 5,5-dioxide  18 mm
2. 10-Chloro-2-fluorophenothiabismine 5,5-dioxide  17 mm
3. 10-(4-Nitrobenzoyloxy)phenothiabismine 5,5-dioxide  17 mm
4. 10-Chloro-2-methylphenothiabismine 5,5-dioxide  14 mm
5. 2,10-Dichlorophenothiabismine 5,5-dioxide  13 mm
6. 1,10-Dichlorophenothiabismine 5,5-dioxide  13 mm
7. 10-(4-Dimethylaminobenzoyloxy)phenothiabismine 5,5-dioxide  13 mm
8. 10-Chloro-2-methoxyphenothiabismine 5,5-dioxide  11 mm
9. 10-Chloro-2-trifluoromethylphenothiabismine 5,5-dioxide  11 mm
10. 4,10-Dichlorophenothiabismine 5,5-dioxide  10 mm
11. 2,8-Dihydroxy-10-chlorophenothiabismine 5,5-dioxide  8 mm
12. 10-Chloro-3-methylphenothiabismine 5,5-dioxide  8 mm
13. 10-Chloro-2-dimethylaminophenothiabismine 5,5-dioxide  7 mm
14. 10-(Pyrrolidinedithiocarbamoyl)phenothiabismine 5,5-dioxide  0 mm
15. 10-(N,N-Diethyldithiocarbamoyl)phenothiabismine 5,5-dioxide  0 mm
16. 10-Chloro-2-tert-butylphenothiabismine 5,5-dioxide  0 mm
17. 10-Chloro-2-phenylphenothiabismine 5,5-dioxide  0 mm
18. tert-butyl-[2-[tert-butyl(dimethyl)silyl]oxy-10-chloro-5,5-dioxo-benzo[b][1,4]benzothiabismin-8-yl]oxy-dimethyl-silane  0 mm
